{"source": "patent US9572807B2", "about": "“Protocols for treatment of major depressive disorder (MDD)” (NEURALSTEM, INC., priority 2014, dated 2017)", "type_in_all_cases": "in vivo, human", "key": {"[1]": {"system": "patients with symptomatic MDD", "assay": "Cognitive and Physical Functioning Questionnaire (CPFQ), Phase 1B study", "settings": "FIG. 4"}, "[2]": {"system": "patients with symptomatic MDD", "assay": "Safety and tolerability in Phase 1B study", "description": "(§1) A double-blind, placebo-controlled, multiple-ascending-dose study employing the compound of formula (1) was performed in patients with symptomatic MDD. Twenty-four subjects were recruited, with their diagnosis and illness severity confirmed through an independent, remote SAFER interview (Targum, S. D., et al., CNS Neurosci. Ther. (2008) 14:2-9) from the Massachusetts General Hospital (MGH) Clinical Trials Network and Institute (CTNI) raters. Each patient underwent a screening for eligibility (Day −37 to Day −6 or −3) and eligible patients were admitted into the unit on Day −5 to complete their wash-out and be reconfirmed for eligibility and for baseline assessments. The patients received daily dosing of formula (1) or placebo for 28 days starting on Day 1 and were followed for safety, pharmacokinetics (PK) and pharmacodynamics (PD) until discharge. At the conclusion of in-house dosing (Day 28), patients remained in the unit for up to 3 additional days, at the psychiatrist's discretion. On Day 35 (±3), Day 42 (±3), Day 49 (±3) and Day 70 (±3) outpatient follow-up visits took place. Patients returned to the unit for extensive follow-up on Day 56 (±3) and Day 84 (±3) (End-of-study).\n(§2) The subjects were randomized into four groups of 6 patients each to receive 40 mg of formula (1) per dose administered orally in gelatin capsules once daily, twice daily or three times daily to provide 40 or 80 or 120 mg daily of formula (1) or placebo for 28 days. Each cohort included at least 3 female subjects. In this example, qEEG was used to characterize pharmacodynamic effects.\nIn addition to safety, pharmacokinetic and the behavioral ratings scales described in Example 2, qEEG measurements were obtained 6 hours post-dose on Days 14 and 28 for 20 minutes at rest. EEGs were recorded using 19-standard International 10/20 System scalp locations plus electromyography (EMG) and eye movement monitoring. Digital EEGs recorded using Cadwell Laboratories instrumentation, were reviewed to identify the presence of physiological and instrumentation prior to analyses. […]"}, "[3]": {"system": "patients with symptomatic MDD", "assay": "Cognitive and Physical Functioning Questionnaire (CPFQ), Phase 1B study", "settings": "for Cohen's d value, CPFQ (ANCOVA): all test groups (n=18) vs placebo (n=6)", "description": "as §1, §2\n(§3) In this example, the results of the study of Example 1 were evaluated by the efficacy assessments that included the Montgomery-Asberg Depression Rating Scale (MADRS), the Clinician Global Impression-Improvement (CGI-I), the Symptoms of Depression Questionnaire (SDQ) and the Cognitive and Physical Functioning Questionnaire (CPFQ). […] These improvements persisted over time during the follow-up for MADRS, SDQ and CPFQ.\n(§4) Baseline values were adjusted for initial differences and the results for the placebo group (n=6) and the tested groups (n=18) were collapsed. The sizes of the effects were estimated as Cohen's d group mean differences where d=0.20 indicates only a small difference, d=0.50 indicates a medium difference and d=0.80 indicates a large difference. Cohen's d values are described in Cohen, J. (1988) Statistical Power Analysis for the Behavioral Sciences (2nd ed.), Lawrence Erlbaum Associates. D values are used when the scale of a dependent variable is not inherently meaningful, the difference between means are considered in standardized units. That is, effect size is measured in terms of the number of standard deviations by which the means differ. Two commonly used measures are Hedges' g and Cohen's d. Both of these measures consist of the difference between means divided by the standard deviation. They differ only in that Hedges' g uses the version of the standard deviation formula in which division is by N−1, whereas Cohen's d uses the version in which division is by N.\n(§5) Covariance is a measure of how much two variables change together and how strong the relationship is between them (Lenth, R. V., The American Statistician (2001) 55:187-193). Analysis of covariance (ANCOVA) is a general linear model which blends analysis of variance (ANOVA) and regression. ANCOVA evaluates whether population means of a dependent variable (DV) are equal across levels of a categorical independent variable (IV), while statistically controlling for the effects of other continuous variables that are not of primary interest, known as covariates (CV). Therefore, when performing ANCOVA, the DV means are adjusted to what they would be if all groups were equal on the CV. In the CGI-I assay, Day 7 was used as the baseline value; in the remaining assays, Day 0 was used as baseline."}, "[4]": {"system": "patients with symptomatic MDD", "assay": "Montgomery-Asberg Depression Rating Scale (MADRS), Phase 1B study", "settings": "for MADRS value: FIG. 2; for Cohen's d value, MADRS (ANCOVA): all test groups (n=18) vs placebo (n=6)", "description": "as §1, §2, §3, §4, §5"}, "[5]": {"system": "patients with symptomatic MDD", "assay": "Overall efficacy assessment in Phase 1B study", "description": "as §1, with “On Day 35 (±3), Day 42 (±3), Day 49 (±3) and Day 70 (±3) outpatient follow-up visits took place. Patients returned to the unit for extensive follow-up on Day 56 (±3) and Day 84 (±3) (End-of-study).” left out\nIn this example, the results of the study of Example 1 were evaluated by the efficacy assessments that included the Montgomery-Asberg Depression Rating Scale (MADRS), the Clinician Global Impression-Improvement (CGI-I), the Symptoms of Depression Questionnaire (SDQ) and the Cognitive and Physical Functioning Questionnaire (CPFQ). […]"}, "[6]": {"settings": "Day 14, 1x = 40 mg/day oral (n=6)"}, "[7]": {"settings": "Day 14, 2x = 80 mg/day oral (n=6)"}, "[8]": {"settings": "Day 14, 3x = 120 mg/day oral (n=6)"}, "[9]": {"settings": "Day 14, all three dose groups pooled (n=18)"}, "[10]": {"settings": "Day 28, 1x = 40 mg/day oral (n=6)"}, "[11]": {"settings": "Day 28, 2x = 80 mg/day oral (n=6)"}, "[12]": {"settings": "Day 28, 3x = 120 mg/day oral (n=6)"}, "[13]": {"settings": "Day 28, all three dose groups pooled (n=18)"}, "[14]": {"settings": "Day 56 (follow-up after 28 days dosing), 1x = 40 mg/day oral"}, "[15]": {"settings": "Day 56 (follow-up after 28 days dosing), 2x = 80 mg/day oral"}, "[16]": {"settings": "Day 56 (follow-up after 28 days dosing), 3x = 120 mg/day oral"}, "[17]": {"settings": "Day 56 (follow-up after 28 days dosing), all three dose groups pooled (n=18)"}, "[18]": {"settings": "Day 84 (follow-up after 28 days dosing), 1x = 40 mg/day oral"}, "[19]": {"settings": "Day 84 (follow-up after 28 days dosing), 2x = 80 mg/day oral"}, "[20]": {"settings": "Day 84 (follow-up after 28 days dosing), 3x = 120 mg/day oral"}, "[21]": {"settings": "Day 84 (follow-up after 28 days dosing), all three dose groups pooled"}, "[22]": {"settings": "Day −5 (baseline before dosing), 1x = 40 mg/day group"}, "[23]": {"settings": "Day −5 (baseline before dosing), 2x = 80 mg/day group"}, "[24]": {"settings": "Day −5 (baseline before dosing), 3x = 120 mg/day group"}, "[25]": {"settings": "Day −5 (baseline before dosing), all three dose groups pooled (n=18)"}}}
{"smiles": "CC(C)CCNc1ncccc1C(=O)N1CCN(Cc2ccccc2)CC1", "note": "[formula (1)]", "values": [{"measurement": "CPFQ value", "setting": "[1]; 40 mg/day, control group (n=2) 3.75", "result": 2.8}, {"measurement": "CPFQ value", "setting": "[1]; 120 mg/day, controls (n=2) 3.3", "result": 2.6}, {"measurement": "Serious adverse events", "setting": "[2]; 40-120 mg/day oral for 28 days", "result": "No serious adverse events occurred"}, {"measurement": "Tolerability", "setting": "[2]; 40-120 mg/day oral for 28 days", "result": "well tolerated"}, {"measurement": "Safety EEG recordings by visual inspection", "setting": "[2]; pre vs post dose", "result": "no new findings"}, {"measurement": "CPFQ value", "setting": "[3]; 80 mg/day, FIG. 4, controls (n=2) 4.6", "result": 2.6}, {"measurement": "Cohen's d value, CPFQ (ANCOVA)", "setting": "[3]; 30 days", "result": 0.94}, {"measurement": "CPFQ Means", "setting": "[3]; [6]", "result": 3.3095}, {"measurement": "CPFQ Means", "setting": "[3]; [7]", "result": 3.2143}, {"measurement": "CPFQ Means", "setting": "[3]; [8]", "result": 3}, {"measurement": "CPFQ Means", "setting": "[3]; [9]", "result": 3.1746}, {"measurement": "CPFQ Means", "setting": "[3]; [10]", "result": 2.7857}, {"measurement": "CPFQ Means", "setting": "[3]; [11]", "result": 2.6905}, {"measurement": "CPFQ Means", "setting": "[3]; [12]", "result": 2.6667}, {"measurement": "CPFQ Means", "setting": "[3]; [13]", "result": 2.7143}, {"measurement": "CPFQ Means", "setting": "[3]; [14]", "result": 2.9048}, {"measurement": "CPFQ Means", "setting": "[3]; [15]", "result": 2.3571}, {"measurement": "CPFQ Means", "setting": "[3]; [16]", "result": 2.5714}, {"measurement": "CPFQ Means", "setting": "[3]; [17]", "result": 2.6111}, {"measurement": "CPFQ Means", "setting": "[3]; [18]", "result": 2.8571}, {"measurement": "CPFQ Means", "setting": "[3]; [19]", "result": 2.4286}, {"measurement": "CPFQ Means", "setting": "[3]; [20]", "result": 2.3714}, {"measurement": "CPFQ Means", "setting": "[3]; [21]", "result": 2.563}, {"measurement": "Cohen's d value, CPFQ (ANCOVA)", "setting": "[3]; Day 85", "result": 1.20}, {"measurement": "CPFQ Means", "setting": "[3]; [22]", "result": 4.0238}, {"measurement": "CPFQ Means", "setting": "[3]; [23]", "result": 3.4762}, {"measurement": "CPFQ Means", "setting": "[3]; [24]", "result": 3.7143}, {"measurement": "CPFQ Means", "setting": "[3]; [25]", "result": 3.7381}, {"measurement": "MADRS value", "setting": "[4]; 40 mg/day, controls (n=2) 23.5", "result": 12.5}, {"measurement": "MADRS value", "setting": "[4]; 80 mg/day, controls (n=2) 18", "result": 15}, {"measurement": "MADRS value", "setting": "[4]; 120 mg/day, controls (n=2) 18", "result": 16}, {"measurement": "MADRS Means", "setting": "[4]; [6]", "result": 20.1667}, {"measurement": "MADRS Means", "setting": "[4]; [7]", "result": 18.8333}, {"measurement": "MADRS Means", "setting": "[4]; [8]", "result": 15.8333}, {"measurement": "MADRS Means", "setting": "[4]; [9]", "result": 18.2778}, {"measurement": "MADRS Means", "setting": "[4]; [10]", "result": 12.6667}, {"measurement": "MADRS Means", "setting": "[4]; [11]", "result": 15}, {"measurement": "MADRS Means", "setting": "[4]; [12]", "result": 16.5}, {"measurement": "MADRS Means", "setting": "[4]; [13]", "result": 14.7222}, {"measurement": "Cohen's d value, MADRS (ANCOVA)", "setting": "[4]; Day 30", "result": 0.95}, {"measurement": "MADRS Means", "setting": "[4]; [14]", "result": 14.3333}, {"measurement": "MADRS Means", "setting": "[4]; [15]", "result": 12}, {"measurement": "MADRS Means", "setting": "[4]; [16]", "result": 11.3333}, {"measurement": "MADRS Means", "setting": "[4]; [17]", "result": 12.5556}, {"measurement": "MADRS Means", "setting": "[4]; [18]", "result": 15}, {"measurement": "MADRS Means", "setting": "[4]; [19]", "result": 12}, {"measurement": "MADRS Means", "setting": "[4]; [20]", "result": 10.8}, {"measurement": "MADRS Means", "setting": "[4]; [21]", "result": 12.7059}, {"measurement": "Cohen's d value, MADRS (ANCOVA)", "setting": "[4]; Day 85", "result": 0.84}, {"measurement": "MADRS Means", "setting": "[4]; [22]", "result": 24.8333}, {"measurement": "MADRS Means", "setting": "[4]; [23]", "result": 24.6667}, {"measurement": "MADRS Means", "setting": "[4]; [24]", "result": 24.3333}, {"measurement": "MADRS Means", "setting": "[4]; [25]", "result": 24.6111}, {"measurement": "Depressive and cognitive symptoms across all measures", "setting": "[5]; Day 28, two lower doses (40 mg/day and 80 mg/day)", "result": "clinically meaningful reduction in depressive and cognitive symptoms across all measures"}, {"measurement": "Effect on condition of patients, further analysis", "setting": "[5]; highest dose (120 mg/day)", "result": "effective in improving the condition of these patients"}]}
